The values below come from article PMC7539012, “Hyperphosphorylated tau aggregation and cytotoxicity modulators screen identified prescription drugs linked to Alzheimer's disease and cognitive functions” (Scientific Reports, 2020).

The subject of this assay is T1, 1N4R p-tau.
T1 construct: made in house; host or cells: E. coli (PIMAX system)
Nature of the assay: p-tau aggregation modulator screen of 1280-compound library (ThS fluorescence net change over 16 h).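 For ThS net change: 30 µM compound with 6 µM p-tau over 16 h.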 The note with it: for PTAI>3SD: flag: p-tau aggregation inhibitor, ThS net change more than 3 SD from mean. Also on record: key to PTAI>3SD: *: PTAI>3SD. In kind it is biochemical.

Setting [1] is: p-tau aggregation modulator screen of 1280-compound library, […].
Where [2] appears, read: p-tau aggregation modulator screen of the compound library, ThS fluorescence net change.
[3] abbreviates: library screen, ThS fluorescence net change over 16 h with p-tau.
[4] abbreviates: p-tau aggregation modulator screen of 1280-compound library, ThS fluorescence net change.
The mark [5] stands for this setting: 1280-compound library screen, ThS fluorescence net change over 16 h.
Setting [6] is: 1280-compound library screen, […].

Where a name gives a salt, the structure may show the parent alone. Read-outs that look alike come from different tables or passages of the source.

`Oc1ccc2c3c1O[C@H]1[C@@H](O)CC[C@@]4(O)[C@@H](C2)N(CC2CCC2)CC[C@]314` [Nalbuphine hydrochloride]: under setting [1], the ThS net change amounted to 371.

Under setting [2], Josamycin yielded a ThS net change of 446.

As to `CC(C)c1nc(CN(C)C(=O)N[C@H](C(=O)N[C@@H](Cc2ccccc2)C[C@H](O)[C@H](Cc2ccccc2)NC(=O)OCc2cncs2)C(C)C)cs1` [Ritonavir], under setting [2], the ThS net change was determined as 538.

Take `CCn1cc(C(=O)[O-])c(=O)c2ccc(C)nc21.[Na+]` [Nalidixic acid sodium salt]: under setting [1], the ThS net change is given as 339.

Take `Cc1cc(C2CCCCC2)n(O)c(=O)c1.NCCO` [Ciclopirox ethanolamine]: the “PTAI>3SD” value was “*”. The same molecule showed a ThS net change under setting [3] of 20.

Regarding `CCN(CC)CCNC(C(=O)OCCC(C)C)c1ccccc1.Cl.Cl` (centres unmarked) [Camylofine chlorhydrate], the ThS net change under setting [4] turned out to be 342.

With `Cc1ccc(N(CC2=NCCN2)c2cccc(O)c2)cc1` [Phentolamine hydrochloride], under setting [4], the ThS net change is 334.

Under setting [4], `CC[C@H]1OC(=O)C[C@@H](O)[C@H](C)[C@@H](O[C@@H]2O[C@H](C)[C@@H](O[C@H]3C[C@@](C)(O)[C@@H](O)[C@H](C)O3)[C@H](N(C)C)[C@H]2O)[C@@H](CC=O)C[C@@H](C)C(=O)/C=C/C(C)=C/[C@@H]1CO[C@@H]1O[C@H](C)[C@@H](O)[C@@H](OC)[C@H]1OC` [Tylosin] displayed a ThS net change of 372.

`Cc1cc(C(C)(C)CC(C)(C)C)ccc1OCCOCC[N+](C)(C)Cc1ccccc1.[Cl-]` [Methyl benzethonium chloride] returned a ThS net change under setting [4] of 348.

For `CN1[C@@H]2CC[C@H]1C[C@@H](OC(=O)C(CO)c1ccccc1)C2` (some centres unmarked) [Atropine sulfate monohydrate], the ThS net change was 397.

In turn, `Cc1c(NC(=O)c2cccnc2)c(=O)n(-c2ccccc2)n1C` [Nifenazone] displayed a ThS net change under setting [5] of 380.

Under setting [5], `CCN1CCC[C@H]1CNC(=O)c1c(O)c(Cl)cc(Cl)c1OC` [Raclopride] yielded a ThS net change of 382.

`C[C@@H](O[C@H]1OCCN(Cc2n[nH]c(=O)[nH]2)[C@H]1c1ccc(F)cc1)c1cc(C(F)(F)F)cc(C(F)(F)F)c1` [Aprepitant]: the ThS net change under setting [2] was 451.

`NS(=O)(=O)c1cc2c(cc1Cl)N=C(CSCc1ccccc1)NS2(=O)=O` [Benzthiazide] returned a ThS net change under setting [5] of 399.

Under setting [4], `Nc1ccc(S(=O)(=O)NC(=O)c2ccccc2)cc1` [Sulfabenzamide] returned a ThS net change of 347.

As to `Cc1c(O)c(=O)n(-c2ccccc2)n1C` [Antipyrine, 4-hydroxy], the ThS net change under setting [4] was found to be 371.

As for `O=C(CCCN1CC=C(n2c(=O)[nH]c3ccccc32)CC1)c1ccc(F)cc1` [Droperidol], under setting [5], the ThS net change came to 412.

Molecule `CN1CCN(c2c(F)cc3c(=O)c(C(=O)O)cn4c3c2SCC4)CC1` [Rufloxacin] came in with a ThS net change under setting [2] of 476.

Take `O=C1c2cccc(O)c2C(=O)c2c(O)cccc21` [1,8-Dihydroxyanthraquinone]: the “PTAI>3SD” value was “*”. The ThS net change under setting [3] is 25.

`COc1ccc(C(Cl)=C(c2ccc(OC)cc2)c2ccc(OC)cc2)cc1` [Chlorotrianisene] came in with a ThS net change under setting [3] of 235.

Take `CN1[C@@H]2C[C@@H](OC(=O)[C@H](CO)c3ccccc3)C[C@H]1[C@@H]1O[C@@H]12.Cl` [Scopolamine hydrochloride]: the ThS net change was found to be 389.

Take `CC(C(=O)O)c1ccc(-c2ccccc2)c(F)c1` (centres unmarked) [Flurbiprofen]: the ThS net change under setting [4] worked out at 377.

For the molecule `Nc1ccc(C(=O)NCC(=O)O)cc1` [Aminohippuric acid], the ThS net change under setting [4] came to 344.

Regarding `CN(CCOc1ccc(NS(C)(=O)=O)cc1)CCc1ccc(NS(C)(=O)=O)cc1` [Dofetilide], under setting [5], the ThS net change amounted to 388.

As for `CN1C(=O)CCS(=O)(=O)C1c1ccc(Cl)cc1` (centres unmarked) [Chlormezanone], the ThS net change under setting [6] was 389.

Consider `CC(CCc1ccccc1)NC(C)C(O)c1ccc(O)cc1` (centres unmarked) [Nylidrin], for which, under setting [5], the ThS net change was found to be 408.

With `OCCN1CCN(CCCN2c3ccccc3Sc3ccc(C(F)(F)F)cc32)CC1` [Fluphenazine dihydrochloride], under setting [4], the ThS net change stood at 370.

`O=C(Cn1ccnc1[N+](=O)[O-])NCCO` [Etanidazole]: the ThS net change under setting [2] came to 461.

Turning to `CCN(CC)CCNC(=O)COc1ccc(OC)cc1.Cl` [Mefexamide hydrochloride], under setting [4], the ThS net change was 331.

`Cc1cccc(Nc2ccncc2S(=O)(=O)NC(=O)NC(C)C)c1` [Torsemide]: the ThS net change under setting [2] came out at 455.

Molecule `CC(C)OC(=O)C(C)(C)Oc1ccc(C(=O)c2ccc(Cl)cc2)cc1` [Fenofibrate] displayed a ThS net change under setting [2] of 531.

On to `O=C(O)Cc1cc(I)c(Oc2ccc(O)c(I)c2)c(I)c1`, for which the ThS net change under setting [4] is listed as 369.

The molecule `CC(C)(C)CC(C)(C)c1ccc(OCCOCC[N+](C)(C)Cc2ccccc2)cc1` [Benzethonium chloride] yielded a ThS net change under setting [1] of 365.

For the molecule `O=C(O)c1cc(/N=N/c2ccc(S(=O)(=O)Nc3ccccn3)cc2)ccc1O` [Sulfasalazine], the ThS net change under setting [3] came to 282.

Molecule `O=C1NCN(c2ccccc2)C12CCN(CCCC(c1ccc(F)cc1)c1ccc(F)cc1)CC2` [Fluspirilen] yielded a ThS net change under setting [3] of 258.

Under setting [5], `O=c1[nH]c(=O)n([C@H]2C[C@H](O)[C@@H](CO)O2)cc1F` [Floxuridine] came in with a ThS net change of 388.

Molsidomine had a ThS net change under setting [6] of 401.

`CC(=O)OCC(=O)[C@@]1(O)CC[C@H]2[C@@H]3CCC4=CC(=O)CC[C@]4(C)[C@@]3(F)[C@@H](O)C[C@@]21C` [Fludrocortisone acetate] came in with a ThS net change under setting [5] of 380.

Under setting [2], `CN(Cc1cc(Br)cc(Br)c1N)C1CCCCC1` [Bromhexine hydrochloride] yielded a ThS net change of 545.

Molecule `O=C(Nc1cccc2c(=O)cc(-c3nnn[nH]3)oc12)c1ccc(OCCCCc2ccccc2)cc1` [Pranlukast] had a ThS net change under setting [3] of 288.

Molecule `CCCCOc1cc(C(=O)NCCN(CC)CC)c2ccccc2n1` [Dibucaine] came in with a ThS net change under setting [3] of 296.

`CCN(CC)CCOC(=O)C1(c2ccc([N+](=O)[O-])cc2)CCCC1.Cl` [Nitrocaramiphen hydrochloride]: the ThS net change is recorded as 435.

For the molecule `O=C(O)c1ccccc1Nc1cccc(C(F)(F)F)c1` [Flufenamic acid], the ThS net change under setting [2] amounted to 416.

Turning to `O=C(CCCN1CCC(O)(c2ccc(Cl)cc2)CC1)c1ccc(F)cc1` [Haloperidol], the ThS net change under setting [3] was 319.

The molecule `Cl.Cl.Fc1ccc(C(OCCN2CCN(CCCc3ccccc3)CC2)c2ccc(F)cc2)cc1` [GBR 12909 dihydrochloride] displayed a ThS net change under setting [2] of 515.

`Cl.O=C(OCC(O)CO)c1ccccc1Nc1ccnc2cc(Cl)ccc12` (centres unmarked) [Glafenine hydrochloride] displayed a ThS net change under setting [5] of 412.

For `NC12CC3CC(CC(C3)C1)C2.NC12CC3CC(CC(C3)C1)C2.O=C(O)/C=C/C(=O)O` [Adamantamine fumarate], under setting [2], the ThS net change came to 423.

`CN1CCC(=C2c3ccccc3C=Cc3ccccc32)CC1` [Cyproheptadine hydrochloride] showed a ThS net change under setting [4] of 375.

`Clc1cnccn1` [2-Chloropyrazine] registered a ThS net change under setting [5] of 410.

In the case of `C[C@@H]1O[C@@H](O[C@@H]2C=C3CC[C@@H]4[C@H](CC[C@]5(C)[C@@H](c6ccc(=O)oc6)CC[C@]45O)[C@@]3(C)CC2)[C@H](O)[C@H](O)[C@H]1O` [Proscillaridin A], the ThS net change is listed as 498.

Under setting [2], `CC(C)Cn1cnc2c(N)nc3ccccc3c21` [Imiquimod] came in with a ThS net change of 439.

`COc1ccc2c3c1O[C@H]1C[C@@H](O)C=C[C@@]31CCN(C)C2` [Galanthamine hydrobromide] had a ThS net change of 448.

Under setting [3], `[H]/N=C(\N/C(=N/[H])NCCCCCCNC(=N)NC(=N)Nc1ccc(Cl)cc1)Nc1ccc(Cl)cc1` [Chlorhexidine] showed a ThS net change of 317.

The molecule `O=C(CCCN1CCC(n2c(O)nc3ccccc32)CC1)c1ccc(F)cc1` [Benperidol] returned a ThS net change under setting [2] of 416.

`c1ccc(-c2ccc(C(c3ccccc3)n3ccnc3)cc2)cc1` (centres unmarked) [Bifonazole]: under setting [2], the ThS net change came to 432.

`CS(=O)(=O)O.O.O=C(O[C@@H]1C[C@@H]2C[C@@H]3C[C@H](C1)N2CC3=O)c1c[nH]c2ccccc12` [Dolasetron mesilate] registered a ThS net change under setting [1] of 353.

For `CC(=O)S[C@@H]1CC2=CC(=O)CC[C@]2(C)[C@H]2CC[C@@]3(C)[C@@H](CC[C@@]34CCC(=O)O4)[C@H]12` [Spironolactone], the ThS net change under setting [4] is 372.

Under setting [6], `CN1CCN(C(=O)OC2c3nccnc3C(=O)N2c2ccc(Cl)cn2)CC1` (centres unmarked) [Zopiclone] came in with a ThS net change of 407.

Molecule `CC(CN1c2ccccc2Sc2ccccc21)N(C)C` (centres unmarked) [Promethazine hydrochloride] came in with a ThS net change under setting [4] of 330.

Take `CC(C)COCC(CN(Cc1ccccc1)c1ccccc1)N1CCCC1` (centres unmarked) [Bepridil hydrochloride]: under setting [2], the ThS net change is recorded as 418.

For `CC(C(=O)[O-])c1cccc(Oc2ccccc2)c1.CC(C(=O)[O-])c1cccc(Oc2ccccc2)c1.O.O.[Ca+2]` (centres unmarked) [Fenoprofen calcium salt dihydrate], the ThS net change under setting [1] amounted to 366.

Molecule `CC(C)NC[C@H](O)c1ccc(O)c(O)c1.Cl` [(-)-Isoproterenol hydrochloride] gave a ThS net change under setting [5] of 400.

Regarding `CN(C)/N=N/c1[nH]cnc1C(N)=O` [Dacarbazine], the ThS net change under setting [5] is listed as 392.

`CCN(CC)CCNC(=O)c1cc(Cl)c(N)cc1OC.Cl` [Metoclopramide monohydrochloride] returned a ThS net change under setting [3] of 299.

The molecule `CCc1oc2ccccc2c1C(=O)c1cc(Br)c(O)c(Br)c1` [Benzbromarone] displayed a ThS net change under setting [2] of 498.

As to `CC(C)NCC(O)c1cc(O)cc(O)c1.CC(C)NCC(O)c1cc(O)cc(O)c1.O=S(=O)(O)O` (centres unmarked), the ThS net change under setting [4] is reported as 362.
